According to the supplement of paper PMC11208160:

Assay: recombinant barcode read abundance after kanamycin selection (control-corrected) (log10(CPM+1)); higher = more efficient recombination; sequences stand for … in AGTGCAGAGAAAATCGGCCAGTTTTCTCTGCCTGCAGTCCGCATGCCGT…AGATTTATGCAGCGGACTGCCTTTCTCCCAAAGTGATAAACCGGACAGTATCATGGACCGGTTTTCCCGGTAATCCGTATTTGCAAGGTTGGTTTCACT; site = the 11-nt target
Procedure, shortened: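 Reported as log10(CPM+1), each value stands for recombination efficiency. That efficiency is the averaged, control-corrected counts per million of barcodes found at recombinant junctions. Cells from a pooled E. coli library pairing targets with IS621 bridge RNA target-binding loops were plated twice on chloramphenicol/ampicillin LB agar (control) and twice on chloramphenicol/ampicillin/kanamycin with 0.1 mM IPTG.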
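Also: IS621 recombinase and bridge RNA in Escherichia coli cells.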

| Sequence | recombinant barcode read abundance (log10) |
| --- | --- |
| GACTGCCCTTGGGTTCTAACCTGTTGCCT (site GGCTGCCCTAG) | 0.0269 |
| GACTGCCCTTGGGTTCTAACCTGTTGCCT (site GTCTGCCCTAG) | 0.129 |
| GACTGGCCTTGGGTTCTAACCTGTTGCTT (site GACTGGCCTAA) | 0.389 |
| GACTGGCCTTGGGTTCTAACCTGTTGCTT (site GACTGGGCTCA) | 0.154 |
| GACTTGACTTGGGTTCTAACCTGTTGCCT (site GACTTGACTAG) | 1.13 |
| GACTTGACTTGGGTTCTAACCTGTTGCCT (site GACTTGCCTAG) | 0.0736 |
| GACTTGACTTGGGTTCTAACCTGTTGCCT (site GACTTGGCTAG) | 0.171 |
| GACTTGACTTGGGTTCTAACCTGTTGCCT (site GACTTGTCTAG) | 0.0657 |
| GACTTGTCTTGGGTTCTAACCTGTTGCCT (site GACTTGACTAG) | 0.0686 |
| GACTTGTCTTGGGTTCTAACCTGTTGCCT (site GACTTGCCTAG) | 0.0458 |
| GACTTGTCTTGGGTTCTAACCTGTTGCCT (site GACTTGGCTAG) | 0.0443 |
| GACTTGTCTTGGGTTCTAACCTGTTGCCT (site GACTTGTCTAG) | 1.41 |
| GACTTTCCTTGGGTTCTAACCTGTTGCAT (site GACTTACCTAT) | 0.01 |
| GACTTTCCTTGGGTTCTAACCTGTTGCAT (site GACTTCCCTAT) | 0.272 |
| GACTTTCCTTGGGTTCTAACCTGTTGCAT (site GACTTGCCTAT) | 0.0607 |
| GACTTTCCTTGGGTTCTAACCTGTTGCAT (site GACTTTCCTAT) | 0.101 |
| GAGAACACTTGGGTTCTAACCTGTTGCCT (site AAGAACACTAG) | 1.09 |
| GAGAACACTTGGGTTCTAACCTGTTGCCT (site CAGAACACTAG) | 0.439 |
| GAGAACACTTGGGTTCTAACCTGTTGCCT (site GAGAACACTAG) | 2.01 |
| GAGAACACTTGGGTTCTAACCTGTTGCCT (site TAGAACACTAG) | 0.852 |
| GAGAAGCCTTGGGTTCTAACCTGTTGCCT (site AAGAAGCCTAG) | 1.17 |
| GAGAAGCCTTGGGTTCTAACCTGTTGCCT (site CAGAAGCCTAG) | 0.409 |

| Sequence | recombinant barcode read abundance (log10) |
| --- | --- |
| GAGAAGCCTTGGGTTCTAACCTGTTGCCT (site GAGAAGCCTAG) | 2.12 |
| GAGAAGCCTTGGGTTCTAACCTGTTGCCT (site TAGAAGCCTAG) | 0.639 |
| GAGAGAGCTTGGGTTCTAACCTGTTGCAT (site GAGAGAGCTAT) | 1.41 |
| GAGAGAGCTTGGGTTCTAACCTGTTGCAT (site GAGCGAGCTAT) | 0.193 |
| GAGAGAGCTTGGGTTCTAACCTGTTGCAT (site GAGGGAGCTAT) | 0.0621 |
| GAGAGAGCTTGGGTTCTAACCTGTTGCAT (site GAGTGAGCTAT) | 0.14 |
| GAGAGGTCTTGGGTTCTAACCTGTTGCCT (site GAGAGGTCTAA) | 0.298 |
| GAGAGGTCTTGGGTTCTAACCTGTTGCCT (site GAGAGGTCTAC) | 0.0681 |
| GAGAGGTCTTGGGTTCTAACCTGTTGCCT (site GAGAGGTCTAG) | 1.56 |
| GAGAGGTCTTGGGTTCTAACCTGTTGCCT (site GAGAGGTCTAT) | 0.203 |
| GAGATGTCTTGGGTTCTAACCTGTTGCCT (site GAGATGTCTAG) | 2.43 |
| GAGATGTCTTGGGTTCTAACCTGTTGCCT (site GCGATGTCTAG) | 0.147 |
| GAGATGTCTTGGGTTCTAACCTGTTGCCT (site GGGATGTCTAG) | 0.266 |
| GAGATGTCTTGGGTTCTAACCTGTTGCCT (site GTGATGTCTAG) | 0.577 |
| GAGCACCCTTGGGTTCTAACCTGTTGCCA (site GAGCACCCTTG) | 1.77 |
| GAGCACCCTTGGGTTCTAACCTGTTGCCA (site GAGCTCACTTG) | 0.0464 |
| GAGCAGTCTTGGGTTCTAACCTGTTGCCT (site GAGAAGTCTAG) | 0 |
| GAGCAGTCTTGGGTTCTAACCTGTTGCCT (site GAGCAGTCTAG) | 2.4 |
| GAGCAGTCTTGGGTTCTAACCTGTTGCCT (site GAGGAGTCTAG) | 0.117 |
| GAGCAGTCTTGGGTTCTAACCTGTTGCCT (site GAGTAGTCTAG) | 0.214 |
| GAGCCACCTTGGGTTCTAACCTGTTGCTG (site GAGCCACCTCA) | 1.58 |
| GAGCCACCTTGGGTTCTAACCTGTTGCTG (site GAGCCGCCTCG) | 0.104 |

| Sequence | recombinant barcode read abundance (log10) |
| --- | --- |
| GAGCCGACTTGGGTTCTAACCTGTTGCAG (site GAGCCGACTCT) | 2.25 |
| GAGCCGACTTGGGTTCTAACCTGTTGCAG (site TAGCCGGCTCT) | 0.0779 |
| GAGCCGACTTGGGTTCTAACCTGTTGCCT (site GAGCAGACTAG) | 0.288 |
| GAGCCGACTTGGGTTCTAACCTGTTGCCT (site GAGCCGACTAG) | 1.56 |
| GAGCCGACTTGGGTTCTAACCTGTTGCCT (site GAGCGGACTAG) | 0.274 |
| GAGCCGACTTGGGTTCTAACCTGTTGCCT (site GAGCTGACTAG) | 0.0365 |
| GAGCCGCCTTGGGTTCTAACCTGTTGCAT (site GAGCCGCCTAT) | 1.48 |
| GAGCCGCCTTGGGTTCTAACCTGTTGCAT (site GGGACGCCTAT) | 0.0756 |
| GAGCCGCCTTGGGTTCTAACCTGTTGCCG (site GAGCCACCTCA) | 0.118 |
| GAGCCGCCTTGGGTTCTAACCTGTTGCCG (site GAGCCGCCTCG) | 1.04 |
| GAGCCTACTTGGGTTCTAACCTGTTGCCT (site GAACCTACTCG) | 0.0224 |
| GAGCCTACTTGGGTTCTAACCTGTTGCCT (site GAGCCTACTAG) | 1.29 |
| GAGCCTACTTGGGTTCTAACCTGTTGCTA (site AAGCCTACTTA) | 0.25 |
| GAGCCTACTTGGGTTCTAACCTGTTGCTA (site GAGCCTACTTA) | 1.02 |
| GAGCGAGCTTGGGTTCTAACCTGTTGCTA (site GAGCGAGCTTA) | 1.31 |
| GAGCGAGCTTGGGTTCTAACCTGTTGCTA (site GAGCGGACTTA) | 0.267 |
| GAGCGCACTTGGGTTCTAACCTGTTGCGG (site GAGCGCACTCC) | 2.13 |
| GAGCGCACTTGGGTTCTAACCTGTTGCGG (site GAGCGCACTCT) | 1.51 |
| GAGCGCTCTTGGGTTCTAACCTGTTGCTA (site GAGCGCTCTAA) | 0.167 |
| GAGCGCTCTTGGGTTCTAACCTGTTGCTA (site GAGCGCTCTCA) | 0.223 |
| GAGCGCTCTTGGGTTCTAACCTGTTGCTA (site GAGCGCTCTGA) | 0.12 |
| GAGCGCTCTTGGGTTCTAACCTGTTGCTA (site GAGCGCTCTTA) | 0.636 |

| Sequence | recombinant barcode read abundance (log10) |
| --- | --- |
| GAGCGCTCTTGGGTTCTAACCTGTTGCTC (site GAGCGCTCTAA) | 0.525 |
| GAGCGCTCTTGGGTTCTAACCTGTTGCTC (site GAGCGCTCTCA) | 0.0599 |
| GAGCGCTCTTGGGTTCTAACCTGTTGCTC (site GAGCGCTCTGA) | 1.18 |
| GAGCGCTCTTGGGTTCTAACCTGTTGCTC (site GAGCGCTCTTA) | 0.381 |
| GAGCGTACTTGGGTTCTAACCTGTTGCAT (site GAGAGTACTAT) | 0.257 |
| GAGCGTACTTGGGTTCTAACCTGTTGCAT (site GAGCGTACTAT) | 1.09 |
| GAGCGTACTTGGGTTCTAACCTGTTGCAT (site GAGGGTACTAT) | 0.0723 |
| GAGCGTACTTGGGTTCTAACCTGTTGCAT (site GAGTGTACTAT) | 0.0144 |
| GAGCGTCCTTGGGTTCTAACCTGTTGCTA (site AGCGAATCTCG) | 0.0924 |
| GAGCGTCCTTGGGTTCTAACCTGTTGCTA (site GAGCGTCCTTA) | 0.94 |
| GAGCTACCTTGGGTTCTAACCTGTTGCCT (site GAGCTACCTAG) | 1.46 |
| GAGCTACCTTGGGTTCTAACCTGTTGCCT (site GAGCTACCTCG) | 0.549 |
| GAGCTACCTTGGGTTCTAACCTGTTGCCT (site GAGCTACCTGG) | 0.172 |
| GAGCTACCTTGGGTTCTAACCTGTTGCCT (site GAGCTACCTTG) | 0.0234 |
| GAGCTGCCTTGGGTTCTAACCTGTTGCTT (site AAGCTGCCTAG) | 0.25 |
| GAGCTGCCTTGGGTTCTAACCTGTTGCTT (site GAGCTGCCTAA) | 1.3 |
| GAGGAGCCTTGGGTTCTAACCTGTTGCGT (site GAGGAGCCTAC) | 2.62 |
| GAGGAGCCTTGGGTTCTAACCTGTTGCGT (site TAGGAACCTAC) | 1.34 |
| GAGGCGGCTTGGGTTCTAACCTGTTGCTT (site GAGACGGCTAA) | 0.162 |
| GAGGCGGCTTGGGTTCTAACCTGTTGCTT (site GAGCCGGCTAA) | 0.149 |
